Test: Membrane permeation property of the cosurfactant in soft capsules over storage at room temperature (cosurfactant content by gas chromatography)
Format: physicochemical
Details: after 50 days
Protocol: The content of the cosurfactant in each soft capsule preparation was analyzed by gas chromatography. The components and their constitutional ratios in the compositions used in this experiment are given in the following Table 1 and the experiment results are given in the following Table 2.

## CO[C@H]1CO[C@H]2[C@@H]1OC[C@H]2OC [dimethylisosorbide, 1,4:3,6-dianhydro-2,5-dimethyl-D-glucitol]
  change in content of the cosurfactant in the soft capsule: does not change in its content even after 50 days
